Laboratory results from patent US10590166B2, “Peptides useable for treating cancer” (Allegro Pharmaceuticals, LLC, priority 2009, dated 2020).
“Also recorded” adds a separate entry of the source. Square brackets hold non-standard residues; d marks the D form. Peptide text beside a SMILES is read from it. Cya = N[CH](CS(=O)(=O)O)C(=O)O

Tests used:
Assay type in all cases: in vivo
rho/VEGF mice = test: Subretinal neovascularization in transgenic rho/VEGF mice expressing human VEGF; conditions: 25 μg, single intraocular injection, seven days post-dose, 3 animals
Protocol: Transgenic mice in which the rhodopsin promoter drives expression of human VEGF in photoreceptors (rho/VEGF mice) were randomized into separate treatment groups and studies were performed to provide the following comparisons:
Pretreatment measurements of the area of subretinal neovascularization were made on each animal using image analysis by a masked observer. Each animal received its designated treatment in a single intraocular injection. Seven days post-dose, measurements of the area of subretinal neovascularization were again made and compared to the pre-dose measurements to determine the change in subretinal neovascularization area. Also, the animals were sacrificed and the retinas were dissected, immunostained with GSA lectin and examined by fluorescence microscopy.

New Zealand Rabbits = test: Ocular toxicity of subconjunctival Compound 1 (Table C); conditions: single subconjunctival 5.0 mg/100 μL, 48 hour follow up
CNV mouse model = test: Suppression of laser-induced choroidal neovascularization, CNV mouse model; conditions: 14 days after laser; for size of CNV lesions: vs vehicle
Protocol: In this example, Compound 1 was tested to determine whether it CNV in a published mouse model. See, Umeda N, Kachi S, Akiyama H, Zahn G, Vossmeyer D, Stragies R, Campochiaro P., Suppression and Regression of Choroidal Neovascularization by Systemic Administration of an α5β1 Integrin Antagonist: Molecular Pharmacology:2006, 69, 1820-1828.
The study mice had laser-induced rupture of Bruch's membrane followed by an intravitreal injection of a single dose of COMPOUND 1 at the concentration of 1.0 μg/1 μL, 25 μg/1 μL and at 50 μg/1 μL, as well as a vehicle immediately after laser treatment. Fourteen days after laser treatment, the area of CNV was measured by image analysis. […] FIG. 8 is a graph showing total area of neovascularization in a CNV mouse model 14 days after treatment with various doses of Compound 1 and control (vehicle only).

Rabbits = tested on: Rabbits
Protocol: In this example, the PVD-Inducing Effects of RGD Peptides and Glycyl-Arginyl-Glycyl-Cysteic-Threonyl-Proline-COOH (RG Cysteic Acid Peptide; GRG Cysteic Acid TP; Compound 1) (SEQ ID NO: 2) were compared in rabbits. The protocol for this study was as follows:
Animal Model • a) 20 Male and Female Rabbits • b) Weighing approximately 1.5-2.5 kg. • c) Divide into 2 groups
i) 10 Rabbits were injected intravitreally with 2.5% RGD solution at pH=6.5 • a) 10 Right Eye injected with 2.5% RGD solution • b) 5 Left Eye used as BSS Control • c) 5 Left Eyes injected with 2.5% RGD+0.02% EDTA at pH=6.5
ii) 10 Rabbits were injected intravitreally with 2.5% RGCysteic solution at pH=6.5 • a) 10 Right Eye injected with 2.5% RGCysteic solution at pH=6.5 • b) 10 Left Eye injected with 2.5% RGCysteic solution+0.02% EDTA at pH=6.5
Active Chemicals • d) Sodium EDTA—99.0-100.5% from Spectrum Chemical Corp. • e) RG Cysteic Acid—cGMP supplier (Purity>98%). • f) RGD—cGMP supplier (Purity>98%). • g) BSS solution
Both the RG Cysteic Acid, RGD, RG Cysteic Acid+Sodium EDTA, RGD+Sodium EDTA, and the BSS solutions were injected into the vitreous cavity 24 hours prior to surgery. The rabbits ([…]) were anesthetized with an intramuscular injection of 2.0 ml of 1:1 combination of xylazine (100 mg/ml) and Ketamine hydrochloride (100 mg/ml). Pupils are dilated with topical cyclopentolate hydrochloride 1% and Phenylephrine hydrochloride 10%.
All animals were initially examined with slit lamp biomicroscopy and indirect ophthalmoscopy to exclude any animals with pre-existing vitreoretinal abnormalities. The intravitreal injection of 0.10 cc was administered 2 mm posterior to the limbus in the supranasal quadrant using a 30-gauge needle attached to a 1.0 cc syringe. Care must be taken to avoid damage to the lens or retina.
Twenty four hours following injection and immediately before initiation of a mechanical vitrectomy, a B-scan ultrasonography was performed to determine the status of the posterior vitreous and also the liquefaction of the vitreous. A two-port pars plana vitrectomy was performed using an infusion fiberoptic and a vitreous cutter attached to a vitrectomy unit. Following a 30 second core vitrectomy, the vitreous cutter was directed to the peripapillary retinal surface where, using low aspiration (<30 mmHg) a separation of the posterior cortical vitreous from the retinal surface was attempted in 4 quadrants. The sclerotomies were sutured and a postoperative B-Scan ultrasonography was carried out to determine the presence and extent of any PVD present in each quadrant. The animals were euthanized with intracardiac sodium pentobarbital injections, and the eyes were immediately enucleated.
; • Grade 0. a) No detachment of the posterior Vitreous is observed. • b) Vitreous Liquefaction • Grade 1. a) Consists of eyes in which the vitreous is detached in 2 or less quadrants. • b) Vitreous Liquefaction • Grade 2. a) Consists of eyes in which the vitreous is detached in 3 or more quadrants, but with remaining focal attachments along the medullary rays • b) Vitreous Liquefaction • Grade 3. a) Consists of eyes in which the vitreous is totally detached from the retinal surface • b) Vitreous Liquefaction
Care was taken to avoid damage to the adjacent retina and lens. The eyes were immersed in 2% paraformaldehyde plus 2.5% glutaraldehyde for a minimum of 24 hours at 4 degrees Celsius. A unique posterior calotte was removed, dehydrated in methanol, and dried in carbon dioxide to the critical point, sputter-coated in gold and photographed using the scanning electron microscope.

[1] = Table B, single intravitreal 2.5 mg/100 μL, 24 hour follow up
[2] = Table B, single intravitreal 2.5 mg/100 μL, 24 hour follow up, share of eyes

CC(O)C(NC(=O)C(CS(=O)(=O)O)NC(=O)CNC(=O)C(CCCNC(=N)N)NC(=O)CN)C(=O)N1CCCC1C(=O)O (stereo not shown) [Compound 1, Glycinyl-Arginyl-Glycinyl-Cysteic-Threonyl-Proline-COOH] (H-GRG[Cya]TP-OH; configuration not given here)
greater reduction in subretinal neovascularization area than control animals (Phosphate Buffered Saline) (rho/VEGF mice): 37.06%
Ocular toxicity: RPE toxicity (New Zealand Rabbits): No RPE toxicity
Ocular toxicity: cataract formation (New Zealand Rabbits): No cataract
Ocular toxicity: exudates (New Zealand Rabbits): No exudates
Ocular toxicity: inflammation (New Zealand Rabbits): No inflammation
Ocular toxicity: retinal hemorrhage (New Zealand Rabbits): No retinal
Ocular toxicity: retinal tears, breaks or detachments (New Zealand Rabbits): No retinal tears,
Ocular toxicity: retinal vascular compromise (New Zealand Rabbits): No retinal vascular
Total PVD (New Zealand Rabbits; 3 eyes): 0% Total PVD
Vitreous liquefaction (New Zealand Rabbits; 3 eyes): No liquefaction
size of CNV lesions (CNV mouse model; single intravitreal 1.0 μg/1 μL): somewhat smaller
reduction in CNV compared to vehicle treated eyes (CNV mouse model; single intravitreal 25 μg/1 μL, statistically significant): 43%
size of CNV lesions (CNV mouse model; single intravitreal 50 μg/1 μL): somewhat smaller
PVD grade (postoperative B-scan) (Rabbits; 2.5% intravitreal 0.10 cc, OD treated eye, 24 hours after injection, one value per animal, listed as RG Cysteic Acid): Grade 3 -; also recorded: Grade 2 - (Consists of eyes in which the vitreous is detached in 3 or more quadrants, but with remaining focal attachments along the medullary rays); also recorded: Grade 1 - (Consists of eyes in which the vitreous is detached in 2 or less quadrants.)
liquefaction of the vitreous (Rabbits; 2.5% intravitreally, 24 hours): completely liquefied
separation of the vitreous from the retina (Rabbits; 2.5% intravitreally, in 24 hours): complete separation of the vitreous from the retina
Ocular toxicity: RPE toxicity (Rabbits; [1]): No RPE toxicity
Ocular toxicity: cataract formation (Rabbits; [1]): No cataract formation
Ocular toxicity: exudates (Rabbits; [1]): No exudates
Ocular toxicity: inflammation (Rabbits; [1]): No inflammation
Ocular toxicity: retinal hemorrhage (Rabbits; [1]): No retinal hemorrhage
Ocular toxicity: retinal tears, breaks or detachments (Rabbits; [1]): No retinal tears, breaks
Ocular toxicity: retinal vascular compromise (Rabbits; [1]): No retinal vascular
Complete Liquefaction (Rabbits; [2]): PVD - 80% Complete
Total PVD (Rabbits; [2]): Group 1: - 60% Total
activity in inducing complete PVD and liquefying the vitreous, compared with RGD (Rabbits; rabbits, 2.5% intravitreal): equal or slightly better than that of RGD
activity when administered with 0.02% Sodium Edetate (Rabbits; rabbits, 2.5% intravitreal): not altered
adverse effects from the intravitreal injection (Rabbits; rabbits, 2.5% intravitreal): no adverse effects or adverse safety effects
